Measurements published in patent publication US20100168112A1, “2-Substituted and 4-substituted aryl nitrone compounds” (RENOVIS, INC., priority 2004, published 2010).

How the values were obtained:
[1] = Plasma protein binding (equilibrium dialysis), human plasma; format: in vitro ADME; settings: 1 μg/mL in plasma, dialysis vs phosphate buffer pH 7.4 overnight at 37° C., read-out: Plasma Protein Binding % Bound Human (converted)
Experimental: (§1) Nitrone compounds of this invention were individually dissolved in DMSO to make a stock solution of 1 mg/mL. The compound was spiked into plasma to achieve a final concentration of 1 μg/mL. Spiked plasma and phosphate buffer (0.1M, pH 7.4), 200 μl each, were added to the opposite sides of the membrane in a 96-well equilibrium dialyzer. The dialyzer plate was then covered and equilibrated overnight at 37° C. on an orbital shaker. Aliquots were taken from the plasma and the buffer compartments and prepared by adding blank plasma to samples from the buffer compartments and drug-free phosphate buffer to samples from the plasma compartments to eliminate the matrix effects. The samples were extracted using protein precipitation procedure by adding CH3CN. The samples were analyzed using a LC/MS/MS method. The percentage of free and bound nitrone compound were calculated according to the following formula:
(§2) %Free=[Free Drug/Total Drug]*100=[(Peak Area)buffer/(Peak Area)serum]*100%Bound=100%Free

[2] = Plasma protein binding (equilibrium dialysis), rat plasma; format: in vitro ADME; settings: 1 μg/mL in plasma, dialysis vs phosphate buffer pH 7.4 overnight at 37° C., read-out: Plasma Protein Binding % Bound Rat (converted)
Experimental: as §1, §2

[3] = test system: CCI rats; test: Mechanical allodynia in mononeuropathic pain model (chronic constrictive injury, CCI, Bennett model); format: in vivo, SD rats; settings: for PWT ipsilateral hind paw (von Frey): 50 mg/kg p.o. single dose, mean ± SEM; for anti-allodynic effect on ipsilateral hind paw vs vehicle (in words): single dose 50 mg/kg, p.o.
Source text: Adult male SD rats weighing 250-300 gm (Charles River Laboratories, San Diego, Calif.) were used. The animal room was lighted artificially at a 12-hr light-dark cycle (7:00 A.M. to 7:00 P.M) with water and food supply ad libitum. Animals were allocated randomly into groups. Seven days before establishing the mononeuropathic pain disease model, rats were trained on a metal mesh floor, covered with a plastic box (10×10×18 cm) 1-2 hr per day to habituate. During the habituating phase, non-painful tactile stimulation on the plantar surface of each hind paw was induced by a set of calibrated von Frey filaments, through the mesh floor, as described in example 2.
Following the 7-day training phase, the animals were anesthetized by i.p. injection of sodium pentobarbital (65 mg/kg, Abbott Lab, Chicago, Ill.). Under aseptic procedures, the skin of the left thigh was cut open for ˜2 cm. Mid-thigh level of the common sciatic nerve was exposed after blunt separation of the muscles. Two 4-0 silk and one 4-0 chromic gut sutures (both from Ethicon, Somerville, N.J.) were loosely ligated around the nerve, with a 1-1.5 mm interval between each of them. Skin wound was then close with wound clips. The right side (i.e., the contralateral side) was not surgically injured. After recovery from surgery, rats showing post-surgery neurological deficits or poor grooming were excluded from the experiments. This surgical procedure (i.e., chronic constrictive injury, CCI, or Bennett model) to establish mononeuropathic pain disease model has been described elsewhere (Bennett, G. J. and Xie, Y. K.: A peripheral mononeuropathy in rat that produces disorders of pain sensation like those seen in man. Pain, 33: 87-107, 1988).
On days 1, 3, 4, 7, 9, 11, and 14 after surgery, animals were tested for mechanical allodynia with von Frey filaments as described previously. On or around post-surgical day 14, the ipsilateral hind paw, felt to 5 grams, an indication of allodynia began to manifest mechanical allodynia (i.e., amplified response to non-painful tactile stimulation by von Frey filaments). The contralateral hind paws remained above the 5-gram level (i.e., no allodynia).
After manifestation of this allodynia, Compound 62 (50 mg/kg, p.o.), Compound 63 (50 mg/kg, p.o.), Compound 66 (50 mg/kg, p.o.), Compound 23 (50 mg/kg, p.o.), 4-hydroxy-tempol (TEMPOL, 50 mg/kg, p.o.), or piroxicam (a COX1 inhibitor, 50 mg/kg, p.o.) were administered to randomly-assigned animals. Changes of mechanical allodynia in the ipsilateral hind paw were recorded at several time points over the course of up to 24 hr.

[4] = Microsomal stability in human liver microsomes; format: in vitro ADME; settings: NADPH, 37° C.
Procedure, shortened: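 Compound (~500 ng/ml) incubated at 37°C for up to 30 min with 0.5 mg/ml microsomal protein and 1 mM NADPH in 0.1 M PBS pH7.4, after 3–5 min preincubation without NADPH. Sprague-Dawley rat or human microsomes; acetonitrile-quenched timepoints analysed by LC/MS/MS for half-life or percent remaining.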

[5] = Microsomal stability in rat liver microsomes; format: in vitro ADME; settings: rat liver microsomes 0.5 mg/ml, 1 mM NADPH, ~500 ng/ml compound, 37° C.
Experimental: Frozen Sprague-Dawley rat liver microsomes (RLM) were thawed on ice and gently mixed before use. The final reaction mixture consisted of a nitrone compound of this invention (at ˜500 ng/ml), 1 mM NADPH, and 0.5 mg/ml of RLM protein in 0.1 M PBS (pH7.4), with organic solvent concentration not exceeding 1% (v/v). Per set of incubations, a positive control compound was included. The mixture was first pre-incubated 3 to 5 minutes at 37° C. without NADPH, and the reaction was then initialized by the addition of NADPH and incubated at 37° C. for up to 30 minutes. An aliquot of the reaction mixture was sampled at the initiation of the reaction and at designated time after reaction started. The drawn samples were quenched with acetonitrile, diluted with mobile phase to ensure the detection of test article in the linear range, and analyzed by LC/MS/MS. Half-life or percentage of remaining nitrone compound was calculated using standard methods. A similar method, or a slight variation of it, was used to test the stability of nitrones in human liver microsomes (HLM).

[6] = post-dosing time −15 min (pre-dose)

| Compound | fraction unbound at 1 μg/mL [1] | fraction unbound at 1 μg/mL [2] | % of Nitrone Remaining at 30 min (Human) [4] | % of Nitrone Remaining at 30 min (Rat) [5] | PWT ipsilateral hind paw (von Frey) ([3]; post-dosing time 30 min) | PWT ipsilateral hind paw (von Frey) ([3]; post-dosing time 60 min) | PWT ipsilateral hind paw (von Frey) ([3]; post-dosing time 300 min) | PWT ipsilateral hind paw (von Frey) ([3]; post-dosing time 1440 min) | PWT ipsilateral hind paw (von Frey) [3, 6] | anti-allodynic effect on ipsilateral hind paw vs vehicle (in words) [3] | PWT ipsilateral hind paw (von Frey) ([3]; post-dosing time 5 min) | PWT ipsilateral hind paw (von Frey) ([3]; post-dosing time 120 min) | PWT ipsilateral hind paw (von Frey) ([3]; post-dosing time 240 min) | PWT ipsilateral hind paw (von Frey) ([3]; post-dosing time 360 min) |
| --- | --- | --- | --- | --- | --- | --- | --- | --- | --- | --- | --- | --- | --- | --- |
| CC(C)(C)/[N+]([O-])=C/c1ccc(S(C)(=O)=O)cc1 [Compound 62, N-tert-Butyl-C-[4-(methanesulfonyl)phenyl]nitrone] | 0.826 | 0.999 | 100% | 100% |  |  |  | 3.43 ± 1.02 gm | 3.17 ± 1.10 gm | rapid onset but short-lasting anti-allodynic effect | 2.86 ± 0.94 gm | 16.71 ± 3.44 gm | 15.14 ± 3.90 gm | 5.46 ± 1.46 gm |
| CC(C)(C)/[N+]([O-])=C/c1ccc(S(C)(=O)=O)cc1S(C)(=O)=O [Compound 63, N-tert-Butyl-C-(2,4-bis-methanesulfonylphenyl)nitrone] | 0.867 | 0.741 | 99% | 97% | 18.4 ± 10.42 gm | 18.8 ± 11.29 gm | 5.20 ± 1.63 gm | 3.60 ± 1.30 gm | 3.88 ± 0.97 gm | produced anti-allodynic effects on ipsilateral hind paws |  |  |  |  |
| CCS(=O)(=O)c1ccc(/C=[N+](\[O-])C(C)(C)C)c(S(=O)(=O)CC)c1 [Compound 64, N-tert-Butyl-C-(2,4-bis-ethanesulfonylphenyl)nitrone] | 0.697 | 0.811 | 100% | 100% |  |  |  |  |  |  |  |  |  |  |

Continued, in another order:

| fraction unbound at 1 μg/mL [1] | fraction unbound at 1 μg/mL [2] | % of Nitrone Remaining at 30 min (Human) [4] | % of Nitrone Remaining at 30 min (Rat) [5] | Compound | PWT ipsilateral hind paw (von Frey) ([3]; post-dosing time 30 min) | PWT ipsilateral hind paw (von Frey) ([3]; post-dosing time 60 min) | PWT ipsilateral hind paw (von Frey) ([3]; post-dosing time 300 min) | PWT ipsilateral hind paw (von Frey) ([3]; post-dosing time 1440 min) | PWT ipsilateral hind paw (von Frey) [3, 6] | anti-allodynic effect on ipsilateral hind paw vs vehicle (in words) [3] | PWT ipsilateral hind paw (von Frey) ([3]; post-dosing time 5 min) | PWT ipsilateral hind paw (von Frey) ([3]; post-dosing time 120 min) | PWT ipsilateral hind paw (von Frey) ([3]; post-dosing time 240 min) | PWT ipsilateral hind paw (von Frey) ([3]; post-dosing time 360 min) |
| --- | --- | --- | --- | --- | --- | --- | --- | --- | --- | --- | --- | --- | --- | --- |
| 1 | 0.976 |  |  | CC(C)(C)/[N+]([O-])=C/c1ccc(S(N)(=O)=O)cc1 [Compound 20, N-(tert-Butyl)-C-[4-(sulfamoyl)phenyl]nitrone] |  |  |  |  |  |  |  |  |  |  |
| 0.8 | 0.782 |  |  | CC(C)(C)/[N+]([O-])=C/c1ccc(S(=O)(=O)N2CCOCC2)cc1 [Compound 23, N-(tert-Butyl)-C-[4-(morpholine-4-sulfonyl)phenyl]nitrone] | 7.67 ± 0.80 gm | 8.17 ± 1.52 gm | 4.43 ± 1.35 gm | 4.67 ± 0.84 gm | 2.43 ± 0.54 gm | statistically significant anti-allodynic effects |  |  |  |  |
| 0.238 | 0.01 |  |  | CC(C)(C)/[N+]([O-])=C/c1ccc(S(=O)(=O)Nc2cccnc2)cc1 [Compound 26, N-(tert-Butyl)-C-[4-(pyridin-3-ylsulfamoyl)phenyl]nitrone] |  |  |  |  |  |  |  |  |  |  |
| 0.726 | 0.898 |  |  | CC(C)(C)/[N+]([O-])=C/c1ccccc1S(C)(=O)=O [Compound 66, N-tert-Butyl-C-(2-methanesulfonylphenyl)nitrone] | 5.33 ± 0.42 gm | 4.12 ± 0.91 gm | 5.33 ± 1.12 gm | 1.57 ± 0.23 gm | 1.97 ± 0.84 gm | no significant anti-allodynic effect |  |  |  |  |
